From ChEMBL document CHEMBL1158931, “Pseudosemiglabrin, a platelet aggregation inhibitor from tephrosia semiglabra” (J Nat Prod, 1990)
The source made the active and inactive calls. The rule behind the calls is not given here.

Assays:
[1] = Antiplatelet aggregatory activity against U46619-induced human platelet aggregation at 45 ug/ml by turbidimetric method; format: functional
Platelet [2] = assay: Antiplatelet aggregatory activity against adenosine diphosphate-induced human platelet aggregation at 44 ug/ml by turbidimetric method; format: functional, cell-based
[3] = Antiplatelet aggregatory activity against U46619-induced human platelet aggregation at 6.5 ug/ml by turbidimetric method; format: functional
Platelet [4] = assay: Antiplatelet aggregatory activity against adenosine diphosphate-induced human platelet aggregation at 13 ug/ml by turbidimetric method; format: functional, cell-based
[5] = Antiplatelet aggregatory activity against U46619-induced human platelet aggregation by turbidimetric method; format: functional, cell-based

| SMILES | Activity [1] | Activity (Platelet [2]) | Activity [3] | Activity (Platelet [4]) | IC50 [5] |
| --- | --- | --- | --- | --- | --- |
| CC(=O)O[C@H]1[C@@H]2c3c(ccc4c(=O)cc(-c5ccccc5)oc34)O[C@@H]2OC1(C)C | 70% | inactive | – | – | – |
| CC(=O)O[C@H]1[C@H]2c3c(ccc4c(=O)cc(-c5ccccc5)oc34)O[C@H]2OC1(C)C | – | – | 85% | inactive | 12.5 µM |
